Assay results published in PubChem BioAssay (NCI).
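Step 1: Grow cells in 96-well plates. Step 2: Expose to compound for 48 hours at 5 concentrations. Step 3: Interpolate endpoints linearly; if unreached, use highest concentration. TGI is the concentration that stops growth completely.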

How the values were obtained:
Assay in all cases: DTP human tumour cell line panel, 48 h
786-0 renal = system: 786-0 renal
A549 NSCLC = system: A549 NSCLC
ACHN renal = system: ACHN renal
CAKI-1 renal = system: CAKI-1 renal
CCRF-CEM leukemia = system: CCRF-CEM leukemia
COLO 205 colon = system: COLO 205 colon
DMS 114 small cell lung = system: DMS 114 small cell lung
DMS 273 small cell lung = system: DMS 273 small cell lung
EKVX NSCLC = system: EKVX NSCLC
HCC-2998 colon = system: HCC-2998 colon
HCT-116 colon = system: HCT-116 colon
HCT-15 colon = system: HCT-15 colon
HL-60(TB) leukemia = system: HL-60(TB) leukemia
HOP-18 NSCLC = system: HOP-18 NSCLC
HOP-62 NSCLC = system: HOP-62 NSCLC
HT29 colon = system: HT29 colon
K-562 leukemia = system: K-562 leukemia
KM12 colon = system: KM12 colon
LOX IMVI melanoma = system: LOX IMVI melanoma
M14 melanoma = system: M14 melanoma
M19-MEL melanoma = system: M19-MEL melanoma
MALME-3M melanoma = system: MALME-3M melanoma
MOLT-4 leukemia = system: MOLT-4 leukemia
NCI-H226 lung = system: NCI-H226 lung
NCI-H23 lung = system: NCI-H23 lung
NCI-H460 lung = system: NCI-H460 lung
NCI-H522 lung = system: NCI-H522 lung
OVCAR-3 ovarian = system: OVCAR-3 ovarian
OVCAR-4 ovarian = system: OVCAR-4 ovarian
OVCAR-5 ovarian = system: OVCAR-5 ovarian
OVCAR-8 ovarian = system: OVCAR-8 ovarian
RPMI-8226 leukemia = system: RPMI-8226 leukemia
SF-268 CNS = system: SF-268 CNS
SF-295 CNS = system: SF-295 CNS
SF-539 CNS = system: SF-539 CNS
SK-MEL-2 melanoma = system: SK-MEL-2 melanoma
SK-MEL-28 melanoma = system: SK-MEL-28 melanoma
SK-MEL-5 melanoma = system: SK-MEL-5 melanoma
SN12C renal = system: SN12C renal
SNB-19 CNS = system: SNB-19 CNS
SNB-75 CNS = system: SNB-75 CNS
SNB-78 CNS = system: SNB-78 CNS
SR leukemia = system: SR leukemia
SW-620 colon = system: SW-620 colon
TK-10 renal = system: TK-10 renal
UACC-257 melanoma = system: UACC-257 melanoma
UO-31 renal = system: UO-31 renal
XF 498 CNS = system: XF 498 CNS
DLD-1 colon = system: DLD-1 colon
HOP-92 NSCLC = system: HOP-92 NSCLC
IGROV1 ovarian = system: IGROV1 ovarian
KM20L2 colon = system: KM20L2 colon
LXFL 529 NSCLC = system: LXFL 529 NSCLC
SK-OV-3 ovarian = system: SK-OV-3 ovarian
UACC-62 melanoma = system: UACC-62 melanoma

Work on COc1ccc(/C=C2\C(=O)N(C(=O)c3ccc(NC(C)=O)cc3)N=C2C)cc1 yielded a TGI (786-0 renal) of over 100 µM, a TGI (A549 NSCLC) of over 100 µM and a TGI (ACHN renal) of over 100 µM. For the same compound, the TGI (CAKI-1 renal) was over 100 µM, the TGI (CCRF-CEM leukemia) was over 100 µM and the TGI (COLO 205 colon) was over 100 µM. The TGI (DMS 114 small cell lung) was over 100 µM, the TGI (DMS 273 small cell lung) was over 100 µM and the TGI (EKVX NSCLC) was over 100 µM. The TGI (HCC-2998 colon) was over 100 µM, the TGI (HCT-116 colon) was over 100 µM and the TGI (HCT-15 colon) was over 100 µM. The TGI (HL-60(TB) leukemia) was over 100 µM, the TGI (HOP-18 NSCLC) was over 100 µM and the TGI (HOP-62 NSCLC) was over 100 µM. For the same compound, the TGI (HT29 colon) was over 100 µM, the TGI (K-562 leukemia) was over 100 µM and the TGI (KM12 colon) was over 100 µM. It also gave a TGI (LOX IMVI melanoma) of over 100 µM, a TGI (M14 melanoma) of over 100 µM and a TGI (M19-MEL melanoma) of over 100 µM. It also gave a TGI (MALME-3M melanoma) of over 100 µM, a TGI (MOLT-4 leukemia) of over 100 µM and a TGI (NCI-H226 lung) of over 100 µM. The TGI (NCI-H23 lung) was over 100 µM, the TGI (NCI-H460 lung) was over 100 µM and the TGI (NCI-H522 lung) was over 100 µM. For the same compound, the TGI (OVCAR-3 ovarian) was over 100 µM, the TGI (OVCAR-4 ovarian) was over 100 µM and the TGI (OVCAR-5 ovarian) was over 100 µM. The TGI (OVCAR-8 ovarian) was over 100 µM, the TGI (RPMI-8226 leukemia) was over 100 µM and the TGI (SF-268 CNS) was over 100 µM. For the same compound, the TGI (SF-295 CNS) was over 100 µM, the TGI (SF-539 CNS) was over 100 µM and the TGI (SK-MEL-2 melanoma) was over 100 µM. The TGI (SK-MEL-28 melanoma) was over 100 µM, the TGI (SK-MEL-5 melanoma) was over 100 µM and the TGI (SN12C renal) was over 100 µM. It also gave a TGI (SNB-19 CNS) of over 100 µM, a TGI (SNB-75 CNS) of over 100 µM and a TGI (SNB-78 CNS) of over 100 µM. It also gave a TGI (SR leukemia) of over 100 µM, a TGI (SW-620 colon) of over 100 µM and a TGI (TK-10 renal) of over 100 µM. The TGI (UACC-257 melanoma) was over 100 µM, the TGI (UO-31 renal) was over 100 µM and the TGI (XF 498 CNS) was over 100 µM.
O=C(NC(=S)Nc1ccccc1)c1ccc([N+](=O)[O-])cc1 gave a TGI (786-0 renal) of over 100 µM, a TGI (A549 NSCLC) of over 100 µM and a TGI (ACHN renal) of over 100 µM. For the same compound, the TGI (CAKI-1 renal) was over 100 µM, the TGI (CCRF-CEM leukemia) was over 100 µM and the TGI (COLO 205 colon) was over 100 µM. For the same compound, the TGI (DLD-1 colon) was over 100 µM, the TGI (DMS 114 small cell lung) was 44.5 µM and the TGI (DMS 273 small cell lung) was over 100 µM. For the same compound, the TGI (EKVX NSCLC) was over 100 µM, the TGI (HCC-2998 colon) was over 100 µM and the TGI (HCT-116 colon) was over 100 µM. It also gave a TGI (HCT-15 colon) of over 100 µM, a TGI (HL-60(TB) leukemia) of over 100 µM and a TGI (HOP-18 NSCLC) of over 100 µM. For the same compound, the TGI (HOP-62 NSCLC) was over 100 µM, the TGI (HOP-92 NSCLC) was over 100 µM and the TGI (HT29 colon) was over 100 µM. The TGI (IGROV1 ovarian) was over 100 µM, the TGI (K-562 leukemia) was over 100 µM and the TGI (KM12 colon) was over 100 µM. It also gave a TGI (KM20L2 colon) of over 100 µM, a TGI (LOX IMVI melanoma) of over 100 µM and a TGI (LXFL 529 NSCLC) of over 100 µM. It also gave a TGI (M14 melanoma) of over 100 µM, a TGI (M19-MEL melanoma) of over 100 µM and a TGI (MALME-3M melanoma) of over 100 µM. It also gave a TGI (MOLT-4 leukemia) of over 100 µM, a TGI (NCI-H23 lung) of over 100 µM and a TGI (NCI-H460 lung) of over 100 µM. The TGI (NCI-H522 lung) was 86.6 µM, the TGI (OVCAR-3 ovarian) was over 100 µM and the TGI (OVCAR-4 ovarian) was over 100 µM. For the same compound, the TGI (OVCAR-8 ovarian) was over 100 µM, the TGI (RPMI-8226 leukemia) was over 100 µM and the TGI (SF-268 CNS) was over 100 µM. For the same compound, the TGI (SF-295 CNS) was over 100 µM, the TGI (SK-MEL-28 melanoma) was over 100 µM and the TGI (SK-MEL-5 melanoma) was over 100 µM. The TGI (SK-OV-3 ovarian) was over 100 µM, the TGI (SN12C renal) was over 100 µM and the TGI (SNB-75 CNS) was over 100 µM. The TGI (SNB-78 CNS) was over 100 µM, the TGI (SW-620 colon) was over 100 µM and the TGI (TK-10 renal) was over 100 µM. It also gave a TGI (UACC-257 melanoma) of over 100 µM, a TGI (UACC-62 melanoma) of over 100 µM and a TGI (UO-31 renal) of over 100 µM. For the same compound, the TGI (XF 498 CNS) was over 100 µM.
